According to US4801616A, “Diphenylmethanone compounds and anti-inflammatory use thereof” (Eli Lilly and Company, priority 1986, dated 1989):

How the values were obtained:
[1] = biological target: T1, fatty acid cyclooxygenase (Homo sapiens, UniProt P23219); assay: Fatty Acid Cyclooxygenase (FCO) Assay, inhibition of PGE2 formation by purified human platelet enzyme; type: biochemical; settings: for inhibition at 30 µg/mL: percent inhibition at 30 μg/ml; for IC50: human platelet microsomal enzyme, pH 8.0, 37° C.
T1 construct: The solubilized fatty acid cyclooxygenase was applied to a 440 ml electrofocusing column; from tissue; host or cells: human platelets: microsomes solubilized with Triton X-100, purified by electrofocusing and G-200 Sephadex
Description: Fatty Acid Cyclooxygenase (FCO) Assay
Microsomes were prepared from 185 bags of human platelets (each bag containing the platelets from one pint of blood prepared using differential centrifugation procedures). The platelets from approximately 60 bags were prepared at one time. Platelet-rich plasma (500 g) was centrifuged at 10,000×g for 20 minutes, and the platelet pellet was suspended in 100 ml of 0.1M potassium phosphate buffer, pH 8.0, with a Teflon glass homogenizer and sonicated for 5.0 minutes with a Bronson Sonifier (Model 350) in a rosette flask cooled in ice water. Disrupted platelets were centrifuged 15 minutes at 10,000× g. The supernatant was centrifuged at 100,000× g for 90 minutes and the microsomal pellets were homogenized in 25 ml of 20% sucrose containing 1.0% Triton X-100 detergent. After 30 minutes at 4° C., the solubilized microsomes were centrifuged at 100,000× g for 60 minutes. The yellow supernatant was removed and stored at -70 ° C.
The solubilized fatty acid cyclooxygenase was applied to a 440 ml electrofocusing column (LKB-8012) containing 1% phisolytes (Brinkman Instruments, Westburgh, NY), pH 2-11, with the cathode at the top of the column. The enzyme was layered onto the column at the appropriate time so that its sucrose concentration was equal to that of the column gradient. This was accomplished by checking the gradient concentration periodically with a sucrose hand refractometer. Electrofocusing was carried out for 16 hours with an initial voltage of 400 V and a final voltage of 900-1,000 volts. Fractions were collected (20 ml) and assayed for PGE2 formation. Active peak fractions were pooled and concentrated by ultrafiltration (XM 100A) to a volume of 3-5 ml.
Active fractions from electrofocusing were applied to a G-200 Sephadex column (2 cm×46 cm) and eluted with 10 mM potassium phosphate buffer, pH 7.0, in 5 ml fractions. After assay, active fractions were poored and concentrated to 1.0 ml by ultrafiltration (XM 100A), and kept frozen at -70° C.
Enzyme activity was determined by assaying for PGE2 formation by preincubating the enzyme with 10 mmol/l imidazole phosphate buffer, pH 8.0, 2 mmol/l epinephrine, 2 mmol/l methemoglobin, and the test compound (30 μg/ml) in a total volume of 0.2 ml for one minute at 37° C. After preincubation, 5 mmol/l ^14 C-arachidonic acid were added and the mixture was incubated an additional 0.5 minutes at 37° C. The enzyme reaction was stopped by the addition of 2 μl of indomethacin (2 mg/ml) in alcohol.
The reaction mixture was spotted (50 μl) on a silica gel (LQ6D) plate and subjected to TLC. The solvent system consisted of chloroform-methanol-glacial acetic acid (90:5:5, v/v/v) and the relative mobilities were PGF2α =0.235, and PGE2 =0.47. The silica gel on the plate was scraped in 1 cm sections, suspended in 5 ml of the scintillation fluid [5.88 g of 2,5-diphenyloxazole and 118 mg of 1,4 -bis(5-phenyloxazol-2-yl)benzene] dissolved in 650 ml of toluene and 350 ml of Triton X-100) and the radioactivity was determined in an Isocap/300 liquid scintillation counter (Searle Analytic, Inc., Southfield, Mich.). Another 50 μl of the mixture was added to 10 ml of the Triton X-100 based scintillation fluid, and the radioactivity was determined so that the amount of radioactivity recovery from the TLC plate could be ascertained. PGE2 formation for each test compound was determined as a percent of control experiments wherein no test compound was added. Data is expressed in Table I either as the percent inhibition of formation of PGE2 at a test compound concentration of 30 μ g/ml, or as an IC50 for inhibition of PGE2 formation.

5-lipoxygenase = biological target: T2, 5-lipoxygenase (Cavia porcellus, UniProt A0A286X958); assay: 5-Lipoxygenase (5-LPO) Assay, inhibition of 5-HETE formation in PMNL sonicate supernatant; type: biochemical, guinea pig
T2 construct: incubating 0.2 ml of the supernatant obtained from the PMNL sonicate with the test compound; from tissue; host or cells: casein-elicited guinea pig peritoneal polymorphonuclear leukocytes (PMNL, more than 95 percent of the cells), sonicated, 30,000 x g supernatant
T2 sequence (A0A286X958 1-674): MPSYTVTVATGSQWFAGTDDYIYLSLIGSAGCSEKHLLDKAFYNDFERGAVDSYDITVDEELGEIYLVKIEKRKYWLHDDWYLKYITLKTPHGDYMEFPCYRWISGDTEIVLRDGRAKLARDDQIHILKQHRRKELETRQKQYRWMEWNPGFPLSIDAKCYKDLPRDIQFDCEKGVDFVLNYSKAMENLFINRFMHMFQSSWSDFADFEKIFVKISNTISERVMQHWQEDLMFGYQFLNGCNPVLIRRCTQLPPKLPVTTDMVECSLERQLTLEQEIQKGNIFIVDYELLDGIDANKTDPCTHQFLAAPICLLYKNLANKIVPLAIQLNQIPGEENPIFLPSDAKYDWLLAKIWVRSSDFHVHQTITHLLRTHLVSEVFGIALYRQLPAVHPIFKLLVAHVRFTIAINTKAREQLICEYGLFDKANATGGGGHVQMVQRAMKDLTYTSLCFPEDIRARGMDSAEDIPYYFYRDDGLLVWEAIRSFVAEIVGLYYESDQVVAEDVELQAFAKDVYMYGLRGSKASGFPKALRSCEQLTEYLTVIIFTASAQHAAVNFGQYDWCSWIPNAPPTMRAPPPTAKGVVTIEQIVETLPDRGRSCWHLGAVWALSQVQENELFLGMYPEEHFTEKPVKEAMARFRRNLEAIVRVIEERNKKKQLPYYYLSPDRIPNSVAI
Description: 5-Lipoxygenase (5-LPO) Assay
Ten milliliters of a 2% casein solution were injected intraperitoneally into guinea pigs weighing 250-300 gm. After 16-18 hours, the guinea pigs were killed by suffocation in a carbon dioxide chamber. The peritoneal cavity was infused with 70 ml of saline and 40-50 ml of the fluid were recovered from the cavity. After centrifugation, cell pellets were washed twice in Hank's balanced salt solution (HBSS) without calcium ion.
The cells were then suspended in 5 ml of sodium phosphate buffer, pH 7.1 containing 1 mM EDTA, and 0.1% gelatin. About 20-30×10^7 cells were obtained from one guinea pig.
The PMNL suspension was disrupted by five 1/2 second pulse sonications at the setting of 3 in a Branson Sonifier, Model 350, equipped with a microtip. The sonicates were combined and centrifuged at 30,000× g for 10 minutes. The supernatant was kept frozen at -70° C. until use.
Enzyme activity was determined by assaying for 5-HETE formation by first incubating 0.2 ml of the supernatant obtained from the PMNL sonicate with the test compound, 1 mM CaCl2, 2 mM ATP, and 1 mM GSH for 5 minutes at 37° C. The mixture is treated with 5 μM ^14 C-arachidonicacid and incubated at 37° C. an additional 10 minutes. The enzyme reaction was then stopped by the addition of 10 μl of 1M citric acid and 10μl of an alcohol solution containing 20 mg/ml each of indomethacin and butylated hydroxyanisole (BHA). The reaction mixture was spotted (50 μl on a silica gel plate (Baker TLC plate S1250-PA-19C) and subjected to TLC in a solvent system of ethyl acetate/2,2,4-trimethylpentane/glacial acetic acid/water (90:50:20:100).
The radioactivity of the arachidonic acid and its metabolites (5-HETE and LTB4) was visualized from a developed x-ray film which had been exposed to the TLC plate 1-2 days. The amount of 5-HETE formed was quantitated by scraping the silica gel area corresponding to the spot on the x-ray film, and the radioactivity determined in a Isocap/300 liquid scintillation counter (Searle Analytic, Inc.).
The percent inhibition of the formation of 5-HETE was determined for each concentration of test compound tested as compared to a control experiment wherein no test compound was added. The concentration and percent inhibition values were plotted on semi log paper and the concentration in which formation of 5-HETE is inhibited by 50% (IC50) was determined by interpolation.

[2] = guinea pig PMNL sonicate supernatant, 37° C., 5 μM 14C-arachidonic acid

T1 sequence (P23219 24-599): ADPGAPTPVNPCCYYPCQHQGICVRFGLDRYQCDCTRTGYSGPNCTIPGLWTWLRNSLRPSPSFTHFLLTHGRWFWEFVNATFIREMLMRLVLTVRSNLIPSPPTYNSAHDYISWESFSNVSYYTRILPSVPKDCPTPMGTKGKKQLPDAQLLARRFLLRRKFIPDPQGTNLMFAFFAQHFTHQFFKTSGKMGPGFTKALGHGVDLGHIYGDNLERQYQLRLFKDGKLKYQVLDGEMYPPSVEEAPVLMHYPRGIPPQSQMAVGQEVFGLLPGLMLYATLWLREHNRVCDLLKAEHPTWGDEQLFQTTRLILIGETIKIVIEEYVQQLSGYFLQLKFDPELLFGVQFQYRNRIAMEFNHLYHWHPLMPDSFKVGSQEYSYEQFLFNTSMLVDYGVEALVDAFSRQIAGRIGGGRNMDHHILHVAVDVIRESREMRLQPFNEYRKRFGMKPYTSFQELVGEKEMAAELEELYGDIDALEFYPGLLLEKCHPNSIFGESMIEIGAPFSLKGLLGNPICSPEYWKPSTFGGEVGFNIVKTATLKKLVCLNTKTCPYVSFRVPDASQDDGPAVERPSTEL

Row | inhibition at 30 µg/mL [1] [%] | IC50 (5-lipoxygenase; [2]) [µM] | IC50 [1] [µM] | IC50 5-LPO (inhibition of 5-HETE formation) (5-lipoxygenase; [2]) [µg/mL] | inhibition at 30 µg/mL (5-lipoxygenase; percent inhibition at 30 μg/ml) [%] | Compound
1 | 15 | 21.8 |  |  |  | CCCc1c(OCCCCC#N)ccc(C(=O)c2ccccc2OC)c1O [Example 18, 5-[3-Hydroxy-4-(2-methoxybenzoyl)-2-propylphenoxy]pentanenitrile]
2 |  | 9.29 | 32.5 |  |  | CCCc1c(OCc2ccc(-c3nnn[nH]3)cc2)ccc(C(=O)c2ccccc2O)c1O [Example 22, (2-Hydroxyphenyl)[2-hydroxy-3-propyl-4([4-(1H-tetrazol-5-yl)phenyl]methoxy)phenyl]methanone]
3 | 100 | 17.2 |  |  |  | CCCc1c(O)ccc(C(=O)c2ccccc2Cl)c1O [Example 10, (2-Chlorophenyl)(2,4-dihydroxy-3-propylphenyl)methanone]
4 |  | 0.954 | 17.5 |  |  | CCCc1c(OC)ccc(C(=O)c2ccccc2OC)c1OC [Example 1, (2,4-Dimethoxy-3-propylphenyl)(2-methoxyphenyl)methanone]
5 | < 5 | 17.6 |  |  |  | CCCc1c(OCCCCC(=O)N(CC)CC)ccc(C(=O)c2ccccc2OC)c1OC [Example 31, N,N-Diethyl-5-[3-methoxy-4-(2-methoxybenzoyl)-2-propylphenoxy]pentanamide]
6 |  | 2.66 | 9.32 |  |  | CCCc1c(OC)ccc(C(=O)c2ccccc2O)c1OC [Example 2, (2,4-Dimethoxy-3-propylphenyl)(2-hydroxyphenyl)methanone]
7 |  | 63.6 | 17.5 |  |  | CCCc1cc(C(=O)c2ccccc2O)c(O)c(CCC)c1O [Example 7, (2,4-Dihydroxy-3,5-dipropylphenyl)(2-hydroxyphenyl)methanone]
8 |  |  |  | 8 |  | (2,3-Dihydro-4-hydroxy-2-methyl-7-benzofuranyl)(2-hydroxyphenyl)methanone [Example 8]
9 | 0 |  |  |  | 0 | CCCc1c(OCc2nnn[nH]2)ccc(C(=O)c2ccccc2O)c1O [Example 21, (2-Hydroxyphenyl)[2-hydroxy-3-propyl-4-(1H-tetrazol-5-ylmethoxy)phenyl]methanone]
10 | 12 | 11.2 |  |  |  | CCCc1c(OC(C)=O)ccc(C(=O)c2ccccc2OC(C)=O)c1O [Example 6, [4-(Acetyloxy)-2-hydroxy-3-propylphenyl][2(acetyloxy)phenyl]methanone]
11 | 37 | 0.524 |  |  |  | CCCc1c(OCCCCCCC#N)ccc(C(=O)c2ccccc2O)c1O [Example 14, 7-[3-Hydroxy-4-(2-hydroxybenzoyl)-2-propylphenoxy]heptanenitrile]
12 | 15 | 10.5 |  |  |  | CCCc1c(OCCCc2nnn[nH]2)ccc(C(=O)c2ccccc2O)c1O [Example 27, (2-Hydroxyphenyl)(2-hydroxy-3-propyl-4-[3-(1H-tetrazol-5-yl)propoxy]phenyl)methanone]
13 |  | 79.1 |  |  |  | C=C(c1ccccc1OC)c1ccc(OCCCCC#N)c(CCC)c1OC [Example 20, 5-(3-Methoxy-4-[1-(2-methoxyphenyl)ethenyl]2-propylphenoxy)pentanenitrile]
14 | 9 | 26.2 |  |  |  | CCCc1c(OCCCCC#N)ccc(C(=O)c2ccccc2OC)c1OC [Example 19, 5-[3-Methoxy-4-(2-methoxybenzoyl)-2-propylphenoxy]pentanenitrile]
15 |  | 29.2 |  |  |  | CCCc1c(OCCCCCc2nnn[nH]2)ccc(C(=O)c2ccccc2O)c1O [Example 24, (2-Hydroxyphenyl)[2-hydroxy-3-propyl-4-([5-(1H-tetrazol-5-yl)pentyl]oxy)phenyl]methanone]

Row | Compound | inhibition at 30 µg/mL [1] [%] | IC50 (5-lipoxygenase; [2]) [µM] | IC50 [1] [µM] | IC50 5-LPO (inhibition of 5-HETE formation) (5-lipoxygenase; [2]) [µg/mL] | inhibition at 30 µg/mL (5-lipoxygenase; percent inhibition at 30 μg/ml) [%]
16 | CCCc1c(OCCCCc2nnn[nH]2)ccc(C(=O)c2ccccc2OC)c1OC [Example 29, (2-Methoxyphenyl)(2-methoxy-3-propyl-4-[4-(1H-tetrazol-5-yl)butoxy]phenyl)methanone] | < 5 | 14.1 |  |  | 
17 | CCCc1c(OCCCCc2nnn(C)n2)ccc(C(=O)c2ccccc2OC)c1O [Example 32, (2-Hydroxy-4-[4-(2-methyl-2H-tetrazol-5yl)butoxy]-3-propylphenyl)(2-methoxyphenyl)methanone] |  | 0.471 |  |  | 
